Results taken from US20230073764A1, “COMPOSITION OF TANNIC ACID AND VITAMIN D AND METHODS OF USE” (Elastogenesis, LLC, priority 2021, published 2023).

Columns and labels:
[1] = test system: human dermal fibroblasts; experiment: Immunodetection of elastin in cultured human dermal fibroblasts; type: cell-based
Protocol: (§1) Biological effects of tannic acid in the presence of hyaluronic acid or ferulic acid were tested on dermal fibroblasts derived from punch biopsies of healthy skin. All fibroblasts were isolated by allowing migration out of skin explants and passaged by trypsinization. Fibroblasts were maintained in alpha-minimum essential medium supplemented with 20 mM HEPES, 1% antibiotics and antimycotics, 1% L-Glutamate and 2% fetal bovine serum (FBS). Cells were plated ([…] cells/dish) to reach confluency and were cultured for 7 days in the presence or absence of hyaluronic acid (0.1%), ferulic acid ([…]), tannic acid (2 μg/mL), or a combination thereof.
(§2) Cell cultures prepared according to Example 1 maintained in the presence or absence of tannic acid, hyaluronic acid, or ferulic acid were fixed in cold 100% methanol at […] for detection of elastin or in 4% paraformaldehyde at room temperature for detection of collagen I. The multiple parallel cultures were incubated with […] of polyclonal antibody to tropoelastin (Elastin Products, Owensville, Mich.), or polyclonal antibody to collagen type I (Chemicon, Temecula, Calif.). Cultures were incubated with the respective fluorescein-conjugated goat anti-rabbit, goat anti-mouse, or rabbit anti-goat secondary antibodies. Nuclei were counter stained with propidium iodide (Sigma, St. Louis, Mo.). All cultures were examined with a Nikon Eclipse E1000 microscope attached to a cooled CCD camera (QImaging, Retiga EX) and analyzed with the computer-generated morphometric analysis system, in which the Image-Pro Plus software (Media Cybernetics, Silver Springs, Md.) estimates the proportion of areas marked with green fluorescence, in relation to the entire (1 square mm) analyzed field.
Cultured human dermal fibroblasts were grown in the presence or absence of tannic acid at low concentration (2 μg/mL) and high concentration (20 μg/mL). Immunodetection of elastin was performed as described in Example 2.
(§3) Cultured human dermal fibroblasts were grown in the presence of or absence of vitamin D (10^−7 M), tannic acid ([…]), or a combination of vitamin D and tannic acid (2 μg/mL) (FIGS. 2A-2B and FIGS. 3A-3C). Immunodetection of elastin was performed as described above.
Cultured human dermal fibroblasts were grown in the presence of or absence hyaluronic acid (0.1%), tannic acid (2 μg/mL), or a combination of hyaluronic acid (0.1%) and tannic acid (2 μg/mL). Immunodetection of elastin was performed as described above.
Cultured human dermal fibroblasts were grown in the presence or absence of ferulic acid (5 μg/mL), tannic acid (2 μg/mL), or a combination of ferulic acid (5 μg/mL) and tannic acid (2 μg/mL). Immunodetection of elastin and collagen I was performed as described above. Results are shown in FIGS. 5A-5C, and FIGS. 6A-6B for elastin and FIGS. 7A-7C and FIG. 8 for collagen.
Cultured human dermal fibroblasts were grown in the presence or absence of ferulic acid (20 μM), tannic acid (2 μg/mL), or copper sulfate (2 μM). Fibroblasts were also grown in presence of a combination of ferulic acid (20 μM) and copper sulfate (2 μM), a combination of ferulic acid (20 μM) and tannic acid (2 μg/mL), and a combination of tannic acid (2 μg/mL) and copper sulfate (2 μM). Immunodetection of elastin was performed as described above.

[2] = test system: human dermal fibroblasts; experiment: Immunodetection of collagen I in cultured human dermal fibroblasts; type: cell-based; conditions: ferulic acid (5 μg/mL) alone
Protocol: as §1
as §2, with “All cultures were examined with a Nikon Eclipse E1000 microscope attached to a cooled CCD camera (QImaging, Retiga EX) and analyzed with the computer-generated morphometric analysis system, in which the Image-Pro Plus software (Media Cybernetics, Silver Springs, Md.) estimates the proportion of areas marked with green fluorescence, in relation to the entire (1 square mm) analyzed field.” left out

[3] = test system: fibroblast cultures; experiment: Tropoelastin in fibroblast cultures measured using PCR; type: cell-based, human; conditions: PCR after 18 hours; tannic acid added to cultures that contained vitamin D3
Protocol: FIG. 2A depicts the amount of tropoelastin in fibroblast cultures measured using PCR after 18 hours.
as §3

[4] = cited from earlier work
[5] = tannic acid (2 μg/mL) added to hyaluronic acid (0.1%)
[6] = tannic acid (2 μg/mL) added to vitamin D (10^−7 M)

For `O=S(=O)([O-])[O-].[Cu+2]` [copper sulfate, reference compound], the effect on elastin ([1]; copper sulfate (2 μM)) was “little effect on elastin”.

In the case of `COc1cc(/C=C/C(=O)O)ccc1O` [ferulic acid], the concentrations of elastin ([1]; ferulic acid (5 μg/mL) alone) is reported as “negative effect on concentrations of elastin”, the effect on elastin ([1]; ferulic acid (20 μM)) is reported as “leads to a reduction in elastin” and the concentrations of collagen [2] is reported as “minimal effect on concentrations of collagen”.

For `O=C(OC[C@H]1O[C@@H](OC(=O)c2cc(O)c(O)c(OC(=O)c3cc(O)c(O)c(O)c3)c2)[C@H](OC(=O)c2cc(O)c(O)c(OC(=O)c3cc(O)c(O)c(O)c3)c2)[C@@H](OC(=O)c2cc(O)c(O)c(OC(=O)c3cc(O)c(O)c(O)c3)c2)[C@@H]1OC(=O)c1cc(O)c(O)c(OC(=O)c2cc(O)c(O)c(O)c2)c1)c1cc(O)c(O)c(OC(=O)c2cc(O)c(O)c(O)c2)c1` [tannic acid], the production of elastin ([1]; tannic acid (2 μg/mL) added to ferulic acid (5 μg/mL)) was “improved production of elastin even in the presence of ferulic acid”, the elastin fiber formation [1, 5] was “abolished the inhibitory effect of hyaluronic acid on elastin fiber formation” and the “net deposition of elastin” value [1, 5] was “caused an improvement in net deposition of elastin”. For the same molecule, the elastin fiber formation [1, 6] was “abolished the inhibitory effect of vitamin D on elastin fiber formation”, the “net deposition of elastin” value [1, 6] was “caused an improvement in net deposition of elastin” and the elastin concentration ([1]; tannic acid at high concentration (20 μg/mL)) was “caused elastosis”. The elastin concentration ([1]; tannic acid at low concentration (2 μg/mL), compared to high concentration) was “improved elastin concentration”, the amount of tropoelastin [3] was “increased the amount of tropoelastin” and the pKa [4] was “about 6”.

In the case of hyaluronic acid, the elastin production ([1]; hyaluronic acid (0.1%) alone) is reported as “causes inhibition of elastin production”.

With vitamin D [reference compound] the elastin production ([1]; vitamin D (10^−7 M) alone) was “causes inhibition of elastin production”.
